# Values of other authors, collected in patent US11786452B2, “Method for dyeing keratinous material” (Henkel AG & Co. KGaA, priority 2019, dated 2023).
# Details: 25° C.
row,Structure (SMILES),solubility in water
1,CCN(Cc1cccc(S(=O)(=O)[O-])c1)c1ccc(C(=C2C=CC(=[N+](CC)Cc3cccc(S(=O)(=O)[O-])c3)C=C2)c2ccccc2S(=O)(=O)[O-])cc1.[Na+].[Na+] [Acid Blue 9],more than 20 % by weight
2,"O=S(=O)([O-])c1ccc(N=Nc2c(O)ccc3ccccc23)cc1.[Na+] [Acid Orange 7, sodium salt of 4-[(2-hydroxy-1-naphthyl)azo]benzene sulphonate]",more than 7 g/L
3,"O=C([O-])c1c(Cl)c(Cl)c(Cl)c(Cl)c1-c1c2c(Br)cc(=O)c(Br)c-2oc2c(Br)c(O)cc(Br)c12.O=C([O-])c1c(Cl)c(Cl)c(Cl)c(Cl)c1-c1c2c(Br)cc(=O)c(Br)c-2oc2c(Br)c(O)cc(Br)c12.[Na+].[Na+] [Acid Red 92, disodium salt of 3,4,5,6-tetrachloro-2-(1,4,5,8-tetrabromo-6-hydroxy-3-oxoxanthen-9-yl)benzoic acid]",greater than 10 g/L

# Second part, the molecule after the results:
row,solubility in water,Structure (SMILES)
1,2500 µg/mL,"Nc1cc(S(=O)(=O)[O-])cc2cc(S(=O)(=O)[O-])c(N=Nc3ccccc3)c(O)c12.[Na+].[Na+] [Acid Red 33, diantrium salt of 5-amino-4-hydroxy-3-(phenylazo)-naphthalene-2,7-disulphonate]"
2,highly soluble,"O=C([O-])C1=NN(c2ccc(S(=O)(=O)[O-])cc2)C(=O)C1N=Nc1ccc(S(=O)(=O)[O-])cc1.[Na+].[Na+].[Na+] (centres unmarked) [Acid Yellow 23, trisodium salt of 4,5-dihydro-5-oxo-1-(4-sulfophenyl)-4-((4-sulfophenyl)azo)-1H-pyrazole-3-carboxylic acid]"
